Measurements from patent US12263156B2, “Use of small molecule inhibitors of the BfrB:Bfd interaction in biofilms” (priority 2020, dated 2025).

How the values were obtained:
[1] = test system: P. aeruginosa clinical isolate PA_1081725; assay type: cell-based, Pseudomonas aeruginosa; conditions: 2-day old pellicles, 24 h, 1.2× the IC50 (KM-5-25 80 μM; KM-5-66 50 μM)
Procedure: (§1) Pellicle biofilms were grown as described above.
(§2) To investigate whether the compounds are also active against other strains of P. aeruginosa, pellicles of several clinical isolates from JMI Laboratories were cultured. […] To gain a broader understanding of the potential activity spectrum of the BfrB-Bfd inhibitors against P. aeruginosa strains, BLASTp^62 was used to find homologs of BfrB and Bfd sequences in the >4,400 P. aeruginosa genomes in the Pseudomonas Genome Database.^63 The results reveal two important facts: (i) The bfrB and bfd genes are adjacent to one another in all the P. aeruginosa strains, (ii) There is an extremely high level of conservation among the bfd and bfrB sequences. These findings evidence that the compounds of the present technology are broadly active against P. aeruginosa.

[2] = test system: P. aeruginosa clinical isolate PA_1076058; assay type: cell-based, Pseudomonas aeruginosa; conditions: 2-day old pellicles, 24 h, 1.2× the IC50 (KM-5-25 80 μM; KM-5-66 50 μM)
Procedure: as §1, §2

[3] = test system: EYFP-expressing P. aeruginosa PAO1 pellicle biofilms; test: Determination of viable cells (CFU/mL) in pellicle biofilms; conditions: for % survival relative to cells in the pre-treated biofilm / viable cell count as % of the cells in the untreated pellicle / % survival, combination treatment: 24 h; for viable cell count as % of the cells in the untreated pellicle: KM-5-25 40 μM, KM-5-66 20 μM; for relative compound activity (rank order): pellicles treated 24 h with 50 μM of each analog
Procedure: Pellicle biofilms of EYFP-expressing P. aeruginosa PAO1 or clinical isolates were grown in PI media supplemented with 20 μM Fe. Starter cultures were diluted to OD600=0.001 in 4 mL media, placed in 35×10 mm petri dishes and incubated statically at 30° C. for 48 hours. The pellicles were transferred onto circular (1.5 cm diameter) glass coverslips by gently allowing the surface of a coverslip to contact a pellicle. The pellicle-adhered coverslip was washed in PBS and then deposited on top of 1.5 mL of AB challenge media contained in a well of a 12-well microplate, with the pellicle exposed to the media. […] The coverslip-adhered pellicles were exposed to challenge media at 30° C. for 24 hours, changing the challenge media every 12 hours by transferring the pellicle-adhered coverslip to a new plate containing pre-warmed challenge media.
Pellicle biofilms were grown as described above. Planktonic and loosely attached cells were washed (3 times) by immersing the coverslip-adhered pellicles (biofilm facing up) into a well of a 12-well plate containing 3 mL of PBS, and incubating (5 min) with gentle rocking. To remove the pellicle from the coverslip, break the extracellular matrix and release cells from the biofilm, the coverslip-adhered pellicle was placed in a 50 mL conical tube containing a 2 mL suspension of zirconia beads (0.1 mm diameter, BioSpec Products), 10 mL PBS, 0.2 μg/mL alginate lyase and 0.2 μg/mL DNAse. The resultant mixture was incubated at room temperature for 3 min, followed by vigorous vortexing for 4 min. After sedimentation of the zirconia beads, a 100 μL aliquot was used for serial dilution and plating on PIA plates for subsequent enumeration of viable cells (CFU/mL).
To assess the efficacy of antibiotics and compounds with an approach complementary to imaging with CLSM, dispersing biofilm cells for subsequent enumeration of viable cells (CFU/mL) was resorted to. […] The biofilms were then harvested, and the cells dispersed into sterile PBS by vortexing in the presence of zirconia beads, prior to plating the cell suspensions for subsequent enumeration of CFU/mL. […] A characteristic of cells in the VBNC state is their inability to develop into colonies on routine culture media, even though the cells remain viable for long periods of time.^58-59 Evidence that bacterial cells can enter the VBNC has been obtained by several distinct methods,^59 one of which is the utilization of bacteria engineered to constitutively express bioluminescent proteins, and using the bioluminescence as a reporter of metabolic activity.

[4] = 0.6× the IC50 (KM-5-25 40 μM; KM-5-66 30 μM)
[5] = 1.2× the IC50 (KM-5-25 80 μM; KM-5-66 50 μM)
[6] = analog at 1.2× the IC50 combined with colistin at 25× the MIC
[7] = analog at 1.2× the IC50 combined with colistin at 25× the MIC (20 μM)
[8] = analog at 1.2× the IC50 combined with colistin at 50× the MIC
[9] = analog at 1.2× the IC50 combined with colistin at 50× the MIC (40 μM)
[10] = analog at 1.2× the IC50 combined with tobramycin at 25× the MIC
[11] = analog at 1.2× the IC50 combined with tobramycin at 50× the MIC

Row | SMILES | reduction of viable cells [1] | reduction of viable cells [2] | % survival relative to cells in the pre-treated biofilm [3, 4] [%] | % survival relative to cells in the pre-treated biofilm [3, 5] [%] | viable cell count as % of the cells in the untreated pellicle [3] [%] | log reduction of viable cells relative to colistin alone [3, 6] | % survival, combination treatment [3, 7] [%] | log reduction of viable cells relative to colistin alone [3, 8] [log] | % survival, combination treatment [3, 9] [%] | log reduction of viable cells relative to tobramycin alone [3, 10] | % survival, combination treatment [3, 10] [%] | log reduction of viable cells relative to tobramycin alone [3, 11] [log] | % survival, combination treatment [3, 11] [%] | relative compound activity (rank order) [3] | % survival relative to cells in the pre-treated biofilm ([3]; 0.3× the IC50 (KM-5-66 15 μM))
1 | O=C1NC(=O)c2c(NCc3cc(Cl)ccc3O)cccc21 [KM-5-25] | approximately 80% | approximately 80% | ~38 | ~25 | 42 | ~1 log | ~1 | ~0.7 | ~0.5 | approximately 2.5 log | ~0.5 | ~4.7 | ~0.003 | KM-5-66>KM-5-25>16>11 | 
2 | O=C1NC(=O)c2c(NCCCc3cc(O)cc(Cl)c3)cccc21 [KM-5-66] | approximately 80% | approximately 80% | ~21 | ~15 | 37 | approximately 1.7 log | ~0.3 | ~1.9 | ~0.02 | approximately 1.5 log | 5 | ~2 | 1 | KM-5-66>KM-5-25>16>11 | approximately 57%
